In ChEMBL document CHEMBL4699459, “Structure activity study of S-trityl-cysteamine dimethylaminopyridine derivatives as SIRT2 inhibitors: Improvement of SIRT2 binding and inhibition” (Bioorg Med Chem Lett, 2020):

Experiments:
[1] = target: T1, NAD-dependent protein deacetylase sirtuin-2 (Homo sapiens, UniProt Q8IXJ6); assay: Inhibition of recombinant SIRT2 (unknown origin) using FAM-labeled RHKK(Ac) LM peptide as substrate incubated for 60 mins by electrophoretic mobility shift assay
T1 sequence (Q8IXJ6 whole entry): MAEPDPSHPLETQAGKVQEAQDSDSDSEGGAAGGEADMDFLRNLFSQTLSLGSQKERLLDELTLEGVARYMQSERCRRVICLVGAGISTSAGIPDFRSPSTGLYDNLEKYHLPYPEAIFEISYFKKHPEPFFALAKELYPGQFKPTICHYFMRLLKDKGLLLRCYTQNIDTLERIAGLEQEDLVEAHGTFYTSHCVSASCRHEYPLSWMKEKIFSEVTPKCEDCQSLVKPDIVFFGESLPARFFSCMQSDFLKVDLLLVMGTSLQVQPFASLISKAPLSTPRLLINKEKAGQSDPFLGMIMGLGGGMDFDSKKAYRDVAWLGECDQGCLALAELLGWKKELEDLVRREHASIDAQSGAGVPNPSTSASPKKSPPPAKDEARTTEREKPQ

MCF7 = assay: Antiproliferative activity against human MCF7 cells assessed as reduction in cell proliferation measured after 3 days by MTT assay; type: functional, cell-based; details: MCF7, 72 h
HeLa = assay: Antiproliferative activity against human HeLa cells assessed as reduction in cell proliferation measured after 3 days by MTT assay; type: functional, cell-based; details: 72 h
K562 = assay: Antiproliferative activity against human K562 cells assessed as reduction in cell proliferation measured after 3 days by MTT assay; type: functional, cell-based; details: K562, 72 h
MT2 = assay: Cytotoxicity against human MT2 cells assessed as reduction in cell proliferation measured after 3 days by MTT assay; type: cell-based; details: MT2, 72 h
HL-60 = assay: Antiproliferative activity against human HL-60 cells assessed as reduction in cell proliferation measured after 3 days by MTT assay; type: functional, cell-based; details: HL-60, 72 h

Structure (SMILES)	IC50 [1] [µM]	IC50 (MCF7) [µM]	IC50 (HeLa) [nM]	IC50 (K562) [nM]	IC50 (HL-60) [nM]	IC50 (MT2) [µM]
CN(C)c1ccnc(CNCCSC(C)(C)C)c1	> 100					
CN(C)c1cccc(CNCCSC(c2ccccc2)(c2ccccc2)c2ccccc2)c1	> 100					
CN(C)c1ccc(CNCCSC(c2ccccc2)(c2ccccc2)c2ccccc2)c(Cl)c1	> 100					
CN(C)c1ccnc(C(=O)NCCSC(c2ccccc2)(c2ccccc2)c2ccccc2)c1	> 100					
NCCSC(c1ccccc1)(c1ccccc1)c1ccccc1	> 100					
CN(C)c1ccnc(CNCCS)c1	> 100					

Further lines, with some results ahead:

IC50 [1] [µM]	IC50 (MCF7) [µM]	IC50 (HeLa) [nM]	IC50 (K562) [nM]	IC50 (HL-60) [nM]	Structure (SMILES)	IC50 (MT2) [µM]
> 100					COc1cc(N(C)C)ccc1CNCCSC(c1ccccc1)(c1ccccc1)c1ccccc1	
7.6	4.97	1320	1110	2680	CCN(CC)c1ccnc(CNCCSC(c2ccccc2)(c2ccccc2)c2ccccc2)c1	2.22
7.5	5.1	2250	2440	1870	CN(C)c1ccnc(CNCCSC(c2ccccc2)(c2ccccc2)c2ccccc2)c1	3.16
39.3	7.44	4150	3150	5760	c1ccc(C(SCCNCc2ccccn2)(c2ccccc2)c2ccccc2)cc1	3.56
10.8	3.16	1560	2170	450	COC(=O)[C@@H](CSC(c1ccccc1)(c1ccccc1)c1ccccc1)NCc1cc(N(C)C)ccn1	3.15
